What all share (type): biochemical
For one test, the target named is KRAS Q61H (Homo sapiens, UniProt P01116+P62937, Q61H). Description: Disruption of BRAF RBD interaction with Ras (FRET / MOA assay, with Cyclophilin A). The settings on record: KRAS Q61H; read-out: KRAS Q61H FRET data IC50. The source says: (§1) Disruption of B-Raf Ras-Binding Domain (BRAF^RBD) Interaction with K-Ras by Compounds of the Invention (Also Called a FRET Assay or an MOA Assay)
(§2) Note—The following protocol describes a procedure for monitoring disruption of K-Ras G12C (GMP-PNP) binding to BRAF^RBD by a compound of the invention. This protocol may also be executed substituting other Ras proteins or nucleotides.
(§3) The purpose of this biochemical assay was to measure the ability of test compounds to facilitate ternary complex formation between a nucleotide-loaded K-Ras isoform and Cyclophilin A; the resulting ternary complex disrupts binding to a BRAF^RBD construct, inhibiting K-Ras signaling through a RAF effector. Data is reported as IC50 values.
(§4) In assay buffer containing 25 mM HEPES pH 7.3, 0.002% Tween20, 0.1% BSA, 100 mM NaCl and 5 mM MgCl2, tagless Cyclophilin A, His6-K-Ras-GMPPNP, and GST-BRAF^RBD were combined in a 384-well assay plate at final concentrations of 25 μM, 12.5 nM and 50 nM, respectively. Compound was present in plate wells as a 10-point 3-fold dilution series starting at a final concentration of 30 μM. After incubation at 25° C. for 3 hours, a mixture of Anti-His Eu-W1024 and anti-GST allophycocyanin was then added to assay sample wells at final concentrations of 10 nM and 50 nM, respectively, and the reaction incubated for an additional 1.5 hours. […] Compounds that facilitate disruption of a K-Ras:RAF complex were identified as those eliciting a decrease in the TR-FRET ratio relative to DMSO control wells.
(§5) The purpose of this biochemical assay was to measure the ability of test compounds to facilitate ternary complex formation between a nucleotide-loaded K-Ras isoform and Cyclophilin A; the resulting ternary complex disrupts binding to a BRAF^RBDD construct, inhibiting K-Ras signaling through a RAF effector. Data is reported as IC50 values.

The next test addresses NRAS Q61K (Homo sapiens, UniProt P01111+P62937, Q61K). The description is as above. Particulars: NRAS Q61K; read-out: NRAS Q61K FRET data IC50.
Text: as §1, §2, §3, §4, §5

The target in test [1] is T1, KRAS G12V (Homo sapiens, UniProt P01116+P62937, G12V). The test is described as above. Particulars: KRAS G12V; read-out: KRAS G12V FRET data IC50. The gist of the method: (§6)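 Compound-driven ternary complex formation between nucleotide-loaded K-Ras and Cyclophilin A was measured as loss of BRAF RBD binding. Compounds (10-point 3-fold series, top 30 μM final) were incubated 3 h at 25 °C, then anti-His Eu-W1024 (10 nM) and anti-GST allophycocyanin (50 nM) added for 1.5 h. IC50 was taken from the TR-FRET ratio decrease versus DMSO.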

Test [2] concerns the target T2, KRAS G13D (Homo sapiens, UniProt P01116+P62937, G13D). The test is described as above. Particulars: KRAS G13D; read-out: KRAS G13D FRET data IC50. In short, it runs like this: as §6
Test [3] concerns the target T3, KRAS G12C (Homo sapiens, UniProt P01116+P62937, G12C). Described as above. Particulars: KRAS G12C; read-out: KRAS G12C FRET data IC50. In short, it runs like this:
as §6
Target sequence in this assay (P01116 1-169 isoform P01116-2 G12C): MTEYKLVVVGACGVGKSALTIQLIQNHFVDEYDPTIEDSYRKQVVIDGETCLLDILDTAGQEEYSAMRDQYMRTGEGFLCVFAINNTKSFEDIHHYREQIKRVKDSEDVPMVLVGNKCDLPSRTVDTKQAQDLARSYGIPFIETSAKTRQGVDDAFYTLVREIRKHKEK
Target sequence in this assay (P62937 whole entry): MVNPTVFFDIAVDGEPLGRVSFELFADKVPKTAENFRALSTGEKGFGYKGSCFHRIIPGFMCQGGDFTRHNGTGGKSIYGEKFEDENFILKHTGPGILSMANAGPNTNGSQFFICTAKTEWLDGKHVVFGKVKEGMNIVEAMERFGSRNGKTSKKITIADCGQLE

For test [4], the target named is T4, NRAS G12C (Homo sapiens, UniProt P01111+P62937, G12C). The test is described as above. The settings on record: NRAS G12C; read-out: NRAS G12C FRET data IC50.
The target of test [5] is T3, KRAS G12C. Description: Ras-Raf disruption / FRET / MOA assay (BRAF RBD). Particulars: Ras-Raf disruption, with Cyclophilin A; read-out: KRAS G12C FRET data IC50. In short, it runs like this:
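TR-FRET read-out after 1.5 h with anti-His Eu-W1024 (10 nM) and anti-GST APC (50 nM), following 3 h at 25 °C of compound (top 30 μM, 3-fold, 10 points) with 25 μM Cyclophilin A, 12.5 nM GMPPNP-loaded K-Ras G12C and 50 nM BRAF RBD; IC50 reported.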
Target sequence in this assay (P01116 1-169 isoform P01116-2 G12C limits assumed): as the sequence (P01116 1-169 isoform P01116-2 G12C) above
Target sequence in this assay (P62937 whole entry): as the sequence (P62937 whole entry) above

In test [6] the target is T2, KRAS G13D. Description: Ras-Raf disruption / FRET / MOA assay (BRAF RBD). The settings on record: Ras-Raf disruption, with Cyclophilin A; read-out: KRAS G13D FRET data IC50. The gist of the method:
(§7)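 Compound-induced Ras–Cyclophilin A ternary complex disrupting BRAF RBD binding, read as IC50 from reduced TR-FRET ratio relative to DMSO. Final: Ras-GMPPNP 12.5 nM, BRAF RBD 50 nM, Cyclophilin A 25 μM, top compound 30 μM (3-fold, 10 points); 3 h at 25 °C, then 1.5 h with detection antibodies.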

A further test addresses KRAS G12D (Homo sapiens, UniProt P01116+P62937, G12D). The test can be described thus: Ras-Raf disruption / FRET / MOA assay (BRAF RBD). Particulars: Ras-Raf disruption, with Cyclophilin A; read-out: KRAS G12D FRET data IC50. The gist of the method: as §7
In test [7] the target is T5, KRAS G13C (Homo sapiens, UniProt P01116+P62937, G13C). The test can be described thus: Ras-Raf disruption / FRET / MOA assay (BRAF RBD). Particulars: Ras-Raf disruption, with Cyclophilin A; read-out: KRAS G13C FRET data IC50. In short, it runs like this: as §7
Target sequence in this assay (P01116 1-169 isoform P01116-2 G13C limits assumed): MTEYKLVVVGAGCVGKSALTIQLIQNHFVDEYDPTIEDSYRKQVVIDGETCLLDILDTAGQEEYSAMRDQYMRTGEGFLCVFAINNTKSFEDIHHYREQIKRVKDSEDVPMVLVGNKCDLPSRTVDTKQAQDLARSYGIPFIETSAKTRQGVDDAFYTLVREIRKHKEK
Target sequence in this assay (P62937 whole entry): as the sequence (P62937 whole entry) above
Test [8] deals with T1, KRAS G12V. The test can be described thus: Ras-Raf disruption / FRET / MOA assay (BRAF RBD). Particulars: Ras-Raf disruption, with Cyclophilin A; read-out: KRAS G12V FRET data IC50. In short, it runs like this:
as §7

In a further test the target is KRAS WT (Homo sapiens, UniProt P01116+P62937). Description: Ras-Raf disruption / FRET / MOA assay (BRAF RBD). Particulars: Ras-Raf disruption, with Cyclophilin A; read-out: KRAS WT FRET data IC50. The gist of the method: as §7
In the next test the target is KRAS G12S (Homo sapiens, UniProt P01116+P62937, G12S). Description: Ras-Raf disruption / FRET / MOA assay (BRAF RBD). Particulars: Ras-Raf disruption, with Cyclophilin A; read-out: KRAS G12S FRET data IC50. The gist of the method: as §7
Test [9] concerns the target T4, NRAS G12C. Description: Ras-Raf disruption / FRET / MOA assay (BRAF RBD). Particulars: NRAS G12C; read-out: NRAS G12C FRET data IC50. The gist of the method: as §7
Another test deals with NRAS Q61R (Homo sapiens, UniProt P01111+P62937, Q61R). Description: Disruption of BRAF RBD interaction with Ras (FRET / MOA assay, with Cyclophilin A). Particulars: NRAS Q61R; read-out: NRAS Q61R FRET data IC50.
Text: as §1, §2, §3, §4, §5

The target in test [10] is T5, KRAS G13C. The test is described as above. Particulars: KRAS G13C; read-out: KRAS G13C FRET data IC50. The gist of the method:
as §6
Target sequence in this assay (P01116 1-169 isoform P01116-2 G13C): as the sequence (P01116 1-169 isoform P01116-2 G13C limits assumed) above
Target sequence in this assay (P62937 whole entry): as the sequence (P62937 whole entry) above

SMILES strings stand for the structures.

IC50 data for eleven compounds are collected here from US20230233569A1 (Revolution Medicines, Inc., priority 2020, published 2023).

T4 sequence (P01111 whole entry G12C): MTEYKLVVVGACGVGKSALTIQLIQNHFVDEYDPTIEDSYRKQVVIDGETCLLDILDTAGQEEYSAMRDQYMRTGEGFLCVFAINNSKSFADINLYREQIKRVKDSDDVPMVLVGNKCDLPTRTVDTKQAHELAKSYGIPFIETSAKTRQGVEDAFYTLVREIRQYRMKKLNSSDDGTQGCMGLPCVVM
T4 sequence (P62937 whole entry): as the sequence (P62937 whole entry) above
Chain of KRAS G12S (P01116 1-169 isoform P01116-2 G12S limits assumed): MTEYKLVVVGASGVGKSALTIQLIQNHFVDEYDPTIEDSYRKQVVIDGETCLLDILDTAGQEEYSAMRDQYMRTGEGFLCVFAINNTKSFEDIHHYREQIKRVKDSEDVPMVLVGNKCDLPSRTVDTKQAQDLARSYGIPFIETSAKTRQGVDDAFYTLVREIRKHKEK
Chain of KRAS G12S (P62937 whole entry): as the sequence (P62937 whole entry) above
T1 sequence (P01116 1-169 isoform P01116-2 G12V limits assumed): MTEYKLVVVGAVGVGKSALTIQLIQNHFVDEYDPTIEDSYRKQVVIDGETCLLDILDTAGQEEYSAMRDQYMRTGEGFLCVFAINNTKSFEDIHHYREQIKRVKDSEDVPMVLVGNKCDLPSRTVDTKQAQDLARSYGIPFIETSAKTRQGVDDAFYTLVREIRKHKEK
T1 sequence (P62937 whole entry): as the sequence (P62937 whole entry) above
Chain of KRAS G12D (P01116 1-169 isoform P01116-2 G12D limits assumed): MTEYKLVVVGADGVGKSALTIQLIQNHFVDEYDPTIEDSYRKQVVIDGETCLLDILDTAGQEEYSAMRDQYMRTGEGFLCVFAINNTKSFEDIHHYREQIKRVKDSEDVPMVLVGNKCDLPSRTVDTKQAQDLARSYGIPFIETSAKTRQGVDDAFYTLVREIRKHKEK
Chain of KRAS G12D (P62937 whole entry): as the sequence (P62937 whole entry) above
T2 sequence (P01116 1-169 isoform P01116-2 G13D limits assumed): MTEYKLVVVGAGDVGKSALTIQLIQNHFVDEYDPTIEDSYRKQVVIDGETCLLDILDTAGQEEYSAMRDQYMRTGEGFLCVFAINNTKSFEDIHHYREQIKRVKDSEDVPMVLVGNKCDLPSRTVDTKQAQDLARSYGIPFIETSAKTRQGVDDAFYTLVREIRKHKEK
T2 sequence (P62937 whole entry): as the sequence (P62937 whole entry) above
Chain of KRAS WT (P01116 1-169 isoform P01116-2 limits assumed): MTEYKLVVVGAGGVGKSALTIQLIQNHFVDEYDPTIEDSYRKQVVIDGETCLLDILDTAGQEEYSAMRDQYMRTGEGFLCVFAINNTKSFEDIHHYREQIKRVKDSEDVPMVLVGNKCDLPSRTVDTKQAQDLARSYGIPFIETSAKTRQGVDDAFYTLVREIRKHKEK
Chain of KRAS WT (P62937 whole entry): as the sequence (P62937 whole entry) above
Chain of KRAS Q61H (P01116 1-169 isoform P01116-2 Q61H limits assumed): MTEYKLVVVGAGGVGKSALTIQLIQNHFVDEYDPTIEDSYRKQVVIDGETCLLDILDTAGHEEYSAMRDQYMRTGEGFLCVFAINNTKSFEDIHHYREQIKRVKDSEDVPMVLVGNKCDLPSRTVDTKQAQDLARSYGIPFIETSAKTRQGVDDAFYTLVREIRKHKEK
Chain of KRAS Q61H (P62937 whole entry, the tested form may be a part): as the sequence (P62937 whole entry) above
Chain of NRAS Q61K (P01111 whole entry Q61K): as the sequence (P01111 whole entry G12C) above, with C12G, Q61K counted along it
Chain of NRAS Q61K (P62937 whole entry): as the sequence (P62937 whole entry) above
Chain of NRAS Q61R (P01111 whole entry Q61R): as the sequence (P01111 whole entry G12C) above, with C12G, Q61R counted along it
Chain of NRAS Q61R (P62937 whole entry): as the sequence (P62937 whole entry) above

As a reminder, the IC50 is the concentration needed to halve the response being measured. Turning to `CCn1c(-c2cccnc2[C@H](C)OC)c2c3cc(ccc31)-c1csc(n1)C[C@H](NC(=O)[C@H](C(C)C)N(C)C(=O)N1CC3(CN(C)C3)C1)C(=O)N1CCC[C@H](N1)C(=O)OCC(C)(C)C2` (atropisomer, axis not shown) [Example A268], the IC50 at KRAS Q61H and on NRAS Q61K was 10 to 100 nM each time.
In the case of `CCn1c(-c2cccnc2[C@H](C)OC)c2c3cc(ccc31)-c1csc(n1)C[C@H](NC(=O)[C@H](C(C)C)N(C)C(=O)[C@H]1[C@@H]3CNC[C@@H]31)C(=O)N1CCC[C@H](N1)C(=O)OCC(C)(C)C2` (atropisomer, axis not shown) [Example A448], the IC50 at KRAS Q61H is 1000 to 10000 nM; on KRAS G12V [1], above 10000 nM.
`CCn1c(-c2cccnc2[C@H](C)OC)c2c3nc(ccc31)-c1csc(n1)C[C@H](NC(=O)[C@H](C(C)C)N(C)C(=O)N1CC(OC)C1)C(=O)N1CCC[C@H](N1)C(=O)OCC(C)(C)C2` (atropisomer, axis not shown) [Example A613]: the IC50 on KRAS Q61H is 1000 to 10000 nM.
With `CCn1c(-c2cccnc2[C@H](C)OC)c2c3cc(ccc31)-c1cccc(c1)C[C@H](NC(=O)[C@H](C(C)C)N(C)C(=O)N1CCC13CN(C(=O)C#CC(C)(C)N(C)C)C3)C(=O)N1CCC[C@H](N1)C(=O)OCC(C)(C)C2` (atropisomer, axis not shown) [Example A717], the IC50 on KRAS Q61H is 100 to 1000 nM; at KRAS G13D [2] it was 1000 to 10000 nM; on KRAS G12C [3] it was 100 to 1000 nM; at NRAS G12C [4] it was 100 to 1000 nM.
With `CCn1c(-c2cccnc2[C@H](C)OC)c2c3cc(ccc31)-c1cc(O)cc(c1)C[C@H](NC(=O)[C@H](C(C)C)N(C)C(=O)CC1CN(C(=O)[C@@H]3CN3)C1)C(=O)N1CCC[C@H](N1)C(=O)OCC(C)(C)C2` [Example 178], the 50% inhibitory concentration (IC50) on KRAS G12C [5] fell in the range of 10 to 100 nM; on KRAS G13D [6], 100 to 1000 nM; on KRAS G12D, 100 to 1000 nM; at KRAS G13C [7] it was 10 to 100 nM; on KRAS G12V [8], 100 to 1000 nM; at KRAS WT, 100 to 1000 nM. Moreover, the IC50 on KRAS G12S lay in the range of 100 to 1000 nM; at NRAS G12C [9], 10 to 100 nM.
As to `CCn1c(-c2cccnc2[C@H](C)OC)c2c3cc(ccc31)-c1cc(O)cc(c1)C[C@H](NC(=O)[C@H](C(C)C)N(C)C(=O)CC1CN(C(=O)[C@H]3CN3)C1)C(=O)N1CCC[C@H](N1)C(=O)OCC(C)(C)C2` [Example 179], the IC50 at KRAS G12C [5] was in the range of 10 to 100 nM; at KRAS G13D [6] it was 100 to 1000 nM; at KRAS G12D, 100 to 1000 nM; on KRAS G13C [7] it was 10 to 100 nM; on KRAS G12V [8] it was 100 to 1000 nM; at KRAS WT, 100 to 1000 nM. Besides, the IC50 on KRAS G12S was in the range of 100 to 1000 nM; on NRAS G12C [9], 10 to 100 nM.
Take `CCn1c(-c2cccnc2[C@H](C)OC)c2c3cc(ccc31)-c1cc(O)cc(c1)C[C@H](NC(=O)[C@H](C(C)C)N(C)C(=O)C1CC3(C1)CN(C(=O)[C@@H]1CN1)C3)C(=O)N1CCC[C@H](N1)C(=O)OCC(C)(C)C2` [Example 180]: the IC50 at KRAS G12C [5] was 100 to 1000 nM; at KRAS G13D [6], 100 to 1000 nM; at KRAS G12D, 1000 to 10000 nM; on KRAS G13C [7] it was 10 to 100 nM; on KRAS G12V [8] it was 100 to 1000 nM; on KRAS WT, 100 to 1000 nM. The IC50 at KRAS G12S and on NRAS G12C [9] was 100 to 1000 nM in each case.
As for `CCn1c(-c2cccnc2[C@H](C)OC)c2c3cc(ccc31)-c1cc(O)cc(c1)C[C@H](NC(=O)[C@H](C(C)C)N(C)C(=O)[C@H]1C[C@H](NC(=O)[C@H]3CN3)C1)C(=O)N1CCC[C@H](N1)C(=O)OCC(C)(C)C2` [Example 182], the IC50 at KRAS G12C [5] is 10 to 100 nM; at KRAS G13D [6] it was 10 to 100 nM; at KRAS G12D, 100 to 1000 nM; at KRAS G13C [7] it was below 10 nM; at KRAS G12V [8], 10 to 100 nM; on KRAS WT it was 10 to 100 nM. Moreover, the IC50 on KRAS G12S and at NRAS G12C [9] was 10 to 100 nM throughout.
Turning to `CCn1c(-c2cccnc2[C@H](C)OC)c2c3cc(ccc31)-c1cc(O)cc(c1)C[C@H](NC(=O)[C@H](C(C)C)N(C)C(=O)N1CCN(C(=O)[C@@H]3CN3)C(=O)C1)C(=O)N1CCC[C@H](N1)C(=O)OCC(C)(C)C2` [Example 194], the IC50 lay within 100 to 1000 nM on KRAS G12C [5]; 10 to 100 nM at KRAS G13D [6]; 100 to 1000 nM at KRAS G12D; 10 to 100 nM on KRAS G13C [7]; 100 to 1000 nM at KRAS G12V [8]; 100 to 1000 nM at KRAS WT. Besides, the IC50 at KRAS G12S and at NRAS G12C [9] was 100 to 1000 nM throughout.
Take `C=CC(=O)N1CC[C@H](C(=O)N(C)[C@H](C(=O)N[C@H]2Cc3cc(O)cc(c3)-c3ccc4c(c3)c(c(-c3cccnc3)n4C(C)(C)C#N)CC(C)(C)COC(=O)[C@@H]3CCCN(N3)C2=O)C(C)C)C1` [Example A074]: the IC50 on KRAS Q61H was in the range of 100 to 1000 nM; at NRAS Q61R, 1000 to 10000 nM; on KRAS G13C [10], 100 to 1000 nM.
For the compound `CCn1c(-c2cccnc2[C@H](C)OC)c2c3cc(ccc31)-c1cc(O)cc(c1)C[C@H](NC(=O)[C@H](C(C)C)N(C)C(=O)[C@@H]1OCC[C@@H]1c1ccccc1)C(=O)N1CCC[C@H](N1)C(=O)OCC(C)(C)C2` [Example A415], the IC50 on KRAS Q61H is below 10 nM.
